Source: PubChem BioAssay AID1259411 (Chemical Carcinogenesis Research Information System (CCRIS), 2018)
Calls of active or inactive are those of the source. The rule behind the calls is not given here.

System: rodent carcinogenicity bioassays, tumor incidence
Experiment: CCRIS carcinogenicity studies
Details: Species: RAT
In short: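 Archive of carcinogenicity, mutagenicity, tumor promotion and tumor inhibition results drawn from journals, NCI reports and other sources, expert-reviewed; covers 1985-2011 and is no longer updated.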

Measured: carcinogen call

CCN(N=O)C(N)=O
active: Strain/Sex: F344/MALE, Route: GAVAGE, Dose: 0, 2.4 MG IN 0.2 ML ETHYL ACETATE/CORN OIL (1:1) 2/WK FOR 28 WK (TOTAL DOSE: 135 MG) (STUDY DURATION: 80 WK), Tumor Site: Type of Lesion: FORESTOMACH: CARCINOMA, LUNG: CARCINOMA OR ADENOMA active; positive | Strain/Sex: F344/MALE, Route: GAVAGE, Dose: 0, 6 MG/ML (TOTAL DOSE 0; 0.4 MMOL) IN 2 ML ETHYL ACETATE AND CORN OIL (1:2) 2/WK FOR 20 WK (STUDY DURATION: LIFETIME), Dose: 0, 6 MG/ML (TOTAL DOSE 0; 0.4 MMOL) IN 2 ML ETHYL ACETATE AND CORN OIL (1:2) 2/WK FOR 20 WK (STUDY DURATION: LIFETIME), Tumor Site: Type of Lesion: FORESTOMACH: SQUAMOUS CELL CARCINOMA, THYROID: C-CELL TUMOR, FOLLICULAR CELL TUMOR, LUNG: TUMOR, NERVOUS SYSTEM: TUMOR;, Tumor Site: Type of Lesion: FORESTOMACH: SQUAMOUS CELL CARCINOMA, THYROID: C-CELL TUMOR, FOLLICULAR CELL TUMOR, LUNG: TUMOR, NERVOUS SYSTEM: TUMOR active; positive | Strain/Sex: F344/MALE, Route: GAVAGE, Dose: 0, 6 MG/ML IN 0.2 ML ETHYL ACETATE AND CORN OIL 2/WK FOR 20 WK (STUDY DURATION: LIFESPAN), Tumor Site: Type of Lesion: FORESTOMACH: TUMOR, THYROID: C-CELL TUMOR, FOLLICULAR CELL TUMOR, LUNG: TUMOR, NERVOUS SYSTEM: TUMOR, COLON: TUMOR, PERI, Tumor Site: Type of Lesion: FORESTOMACH: TUMOR, THYROID: C-CELL TUMOR, FOLLICULAR CELL TUMOR, LUNG: TUMOR, NERVOUS SYSTEM: TUMOR, COLON: TUMOR, PERI active; positive | Strain/Sex: F344/MALE, Route: GAVAGE, Dose: 0, 12 MG/ML (TOTAL DOSE 0; 1.1 MMOL) IN 2 ML ETHYL ACETATE AND CORN OIL (1:2) 2/WK FOR 28 WK (STUDY DURATION: LIFETIME), Dose: 0, 12 MG/ML (TOTAL DOSE 0; 1.1 MMOL) IN 2 ML ETHYL ACETATE AND CORN OIL (1:2) 2/WK FOR 28 WK (STUDY DURATION: LIFETIME), Tumor Site: Type of Lesion: FORESTOMACH: SQUAMOUS CELL CARCINOMA, LUNG: TUMOR, ILEUM/JEJUNUM: TUMOR, BODY CAVITY: MESOTHELIOMA, ZYMBAL GLAND: TUMOR;, Tumor Site: Type of Lesion: FORESTOMACH: SQUAMOUS CELL CARCINOMA, LUNG: TUMOR, ILEUM/JEJUNUM: TUMOR, BODY CAVITY: MESOTHELIOMA, ZYMBAL GLAND: TUMOR active; positive | Strain/Sex: F344/MALE, Route: GAVAGE, Dose: 0, 12 MG/ML IN 0.2 ML ETHYL ACETATE AND CORN OIL 2/WK FOR 28 WK (STUDY DURATION: LIFESPAN), Tumor Site: Type of Lesion: FORESTOMACH: TUMOR, LUNG: TUMOR, ILEUM/JEJUNUM: TUMOR, PERITONEUM: MESOTHELIOMA, Tumor Site: Type of Lesion: FORESTOMACH: TUMOR, LUNG: TUMOR, ILEUM/JEJUNUM: TUMOR, PERITONEUM: MESOTHELIOMA active; positive | Strain/Sex: F344/MALE, Route: ORAL, Dose: 0, 0.3, 1, 3, 10 PPM IN DRINKING WATER FOR 104 WK (STUDY DURATION: 111 WK), Dose: 0, 0.3, 1, 3, 10 PPM IN DRINKING WATER FOR 104 WK (STUDY DURATION: 111 WK), Tumor Site: Type of Lesion: BRAIN: GLIOMA, MAMMARY GLAND: FIBROMA, LUNG: ADENOMA, LUNG: ADENOCARCINOMA, PERITONEUM: MESOTHELIOMA, Tumor Site: Type of Lesion: BRAIN: GLIOMA, MAMMARY GLAND: FIBROMA, LUNG: ADENOMA, LUNG: ADENOCARCINOMA, PERITONEUM: MESOTHELIOMA active; positive | Strain/Sex: SPRAGUE-DAWLEY/FEMALE, Route: IN UTERO, Dose: 0, 2.5, 10 MG/KG BW ONCE ADMINISTERED INTRAVENOUSLY ON DAY 15 OF GESTATION (STUDY DURATION: 104 WK), Dose: 0, 2.5, 10 MG/KG BW ONCE ADMINISTERED INTRAVENOUSLY ON DAY 15 OF GESTATION (STUDY DURATION: 104 WK), Tumor Site: Type of Lesion: BRAIN: GLIOMA active; positive | Strain/Sex: SPRAGUE-DAWLEY/MALE, Route: IN UTERO, Dose: 0, 2.5, 10 MG/KG BW ONCE ADMINISTERED INTRAVENOUSLY ON DAY 15 OF GESTATION (STUDY DURATION: 104 WK), Dose: 0, 2.5, 10 MG/KG BW ONCE ADMINISTERED INTRAVENOUSLY ON DAY 15 OF GESTATION (STUDY DURATION: 104 WK), Tumor Site: Type of Lesion: BRAIN: GLIOMA active; positive | Strain/Sex: SPRAGUE-DAWLEY, Route: INTRAVENOUSLY TO MATERNAL RATS AT 15 D OF GESTATION, PROGENY OBSERVED, Dose: 0, 2.5, 6.25, 10.0 MG/KG BW (STUDY DURATION: 24 MO), Dose: 0, 2.5, 6.25, 10.0 MG/KG BW (STUDY DURATION: 24 MO), Tumor Site: Type of Lesion: BRAIN: OLIGODENDRO-GLIOMA AND MIXED GLIOMA active; positive | Strain/Sex: SPRAGUE-DAWLEY, Route: INTRAVENOUSLY TO MOTHERS AT 15 D OF GESTATION, PROGENY OBSERVED, Dose: 0, 2.5, 6.25, 10.0 MG/KG BW (STUDY DURATION: 2 YRS), Dose: 0, 2.5, 6.25, 10.0 MG/KG BW (STUDY DURATION: 2 YRS), Tumor Site: Type of Lesion: CRANIAL NERVE: TUMORS active; positive | Strain/Sex: SPRAGUE-DAWLEY, Route: INTRAVENOUSLY TO MOTHERS AT 15 D OF GESTATION, PROGENY OBSERVED, Dose: 0, 2.5, 6.25, 10.0 MG/KG BW (STUDY DURATION: 2 YRS), Dose: 0, 2.5, 6.25, 10.0 MG/KG BW (STUDY DURATION: 2 YRS), Tumor Site: Type of Lesion: SPINAL NERVE: TUMORS active; positive | Strain/Sex: SPRAGUE-DAWLEY, Route: INTRAVENOUSLY TO MOTHERS AT 15 D OF GESTATION, PROGENY OBSERVED, Dose: 0, 2.5, 6.25, 10.0 MG/KG BW (STUDY DURATION: 24 MO), Dose: 0, 2.5, 6.25, 10.0 MG/KG BW (STUDY DURATION: 24 MO), Tumor Site: Type of Lesion: SPINAL CORD: TUMORS active; positive | Strain/Sex: WISTAR/MALE, FEMALE, Route: SUBCUTANEOUS, Dose: 0, 60 MG/KG BW ADMINISTERED TO 3 DAY OLD RATS (STUDY DURATION: 12 MO), Tumor Site: Type of Lesion: CENTRAL NERVOUS SYSTEM: GLIOMA active; positive | Strain/Sex: WISTAR/MALE, FEMALE, Route: TRANSPLACENTAL, Dose: 0, 60 MG/KG BW INTRAVENOUS DOSE ADMINISTERED TO LATE GESTATIONAL RATS AND OFFSPRING OBSERVED FOR 12 MO (STUDY DURATION:, Tumor Site: Type of Lesion: CENTRAL NERVOUS SYSTEM: GLIOMA active; positive | Strain/Sex: WISTAR/MALE, Route: INTRAPERITONEAL, Dose: 300 MG/KG BW 1/WK FOR 45 WK (STUDY DURATION: 45 WK), Tumor Site: Type of Lesion: INTEGUMENTARY SYSTEM (SUBCUTANEOUS TISSUE): SPINDLE CELL SARCOMA active; positive
